Patent US9175003B2, “Substituted azoanthracene derivatives and intermediates for preparation thereof” (TransTech Pharma, LLC, priority 2009, dated 2015)

target: human GLP-1 receptor (Homo sapiens (Human), UniProt P43220); details: read-out: Mean EC50; cAMP, HTRF detection, 30 min at 37° C., HEK-293 cells expressing cloned human GLP-1 receptor
Sequence (P43220 24-463): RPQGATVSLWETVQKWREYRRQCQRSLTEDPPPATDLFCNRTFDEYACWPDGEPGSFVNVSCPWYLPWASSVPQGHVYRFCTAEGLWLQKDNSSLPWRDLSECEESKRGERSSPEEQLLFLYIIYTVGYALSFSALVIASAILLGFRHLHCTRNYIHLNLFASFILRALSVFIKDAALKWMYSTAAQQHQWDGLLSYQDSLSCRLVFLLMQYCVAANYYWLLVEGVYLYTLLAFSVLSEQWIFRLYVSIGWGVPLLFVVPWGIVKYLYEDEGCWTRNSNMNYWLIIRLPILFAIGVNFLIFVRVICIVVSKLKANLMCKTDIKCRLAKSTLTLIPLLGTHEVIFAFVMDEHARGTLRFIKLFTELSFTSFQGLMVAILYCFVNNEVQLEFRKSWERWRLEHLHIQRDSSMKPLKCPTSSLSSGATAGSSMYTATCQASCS

Row | EC50 [nM] | Compound
1 | 327 | Cc1nccc(-c2ccc(C[C@H](NC(=O)[C@@H]3Cc4cc5c(cc4CN3C(=O)C(C)C)O[C@@H](c3ccc(OCc4ccc(Cl)c(Cl)c4)cc3)CO5)C(=O)O)cc2)c1C [Example 153, (S)-2-({(3S,8S)-3-[4-(3,4-Dichloro-benzyloxy)-phenyl]-7-isobutyryl-2,3,6,7,8,9-hexahydro-[1,4]dioxino[2,3-g]isoquinoline-8-carbonyl}-amino)-3-[4-(2,3-dimethyl-pyridin-4-yl)-phenyl]-propionic acid]
2 | 108 | Cc1nccc(-c2ccc(C[C@H](NC(=O)[C@@H]3Cc4cc5c(cc4CN3C(=O)C3CCCC3)O[C@@H](c3ccc(OCc4ccc(Cl)c(Cl)c4)cc3)CO5)C(=O)O)cc2)c1C [Example 154, (S)-2-({(3S,8S)-7-Cyclopentanecarbonyl-3-[4-(3,4-dichloro-benzyloxy)-phenyl]-2,3,6,7,8,9-hexahydro-[1,4]dioxino[2,3-g]isoquinoline-8-carbonyl}-amino)-3-[4-(2,3-dimethyl-pyridin-4-yl)-phenyl]-propionic acid]
3 | 525 | Cc1nccc(-c2ccc(C[C@H](NC(=O)[C@@H]3Cc4cc5c(cc4CN3C(=O)Cc3ccccc3)O[C@@H](c3ccc(OCc4ccc(Cl)c(Cl)c4)cc3)CO5)C(=O)O)cc2)c1C [Example 155, (S)-2-({(3S,8S)-3-[4-(3,4-Dichloro-benzyloxy)-phenyl]-7-phenylacetyl-2,3,6,7,8,9-hexahydro-[1,4]dioxino[2,3-g]isoquinoline-8-carbonyl}-amino)-3-[4-(2,3-dimethyl-pyridin-4-yl)-phenyl]-propionic acid]
4 | 34 | Cc1cccc(C(=O)N2Cc3cc4c(cc3C[C@H]2C(=O)N[C@@H](Cc2ccc(-c3ccnc(C)c3C)cc2)C(=O)O)OC[C@H](c2ccc(OCc3ccc(Cl)c(Cl)c3)cc2)O4)c1 [Example 157, (S)-2-{[(3S,8S)-3-[4-(3,4-Dichloro-benzyloxy)-phenyl]-7-(3-methyl-benzoyl)-2,3,6,7,8,9-hexahydro-[1,4]dioxino[2,3-g]isoquinoline-8-carbonyl]-amino}-3-[4-(2,3-dimethyl-pyridin-4-yl)-phenyl]-propionic acid]

More lines, now with the values behind:

Row | Compound | EC50 [nM]
5 | Cc1nc(N)ccc1S(=O)(=O)N1Cc2cc3c(cc2C[C@H]1C(=O)N[C@@H](Cc1ccc(-c2ccc(C#N)cc2)cc1)C(=O)O)OC[C@H](c1ccc(OCc2ccc(Cl)c(Cl)c2)cc1)O3 [Example 141, (S)-2-({(3S,8S)-7-(6-Amino-2-methyl-pyridine-3-sulfonyl)-3-[4-(3,4-dichloro-benzyloxy)-phenyl]-2,3,6,7,8,9-hexahydro-[1,4]dioxino[2,3-g]isoquinoline-8-carbonyl}-amino)-3-(4′-cyano-biphenyl-4-yl)-propionic acid] | 315
6 | Cc1nc(NC(C)C)ccc1S(=O)(=O)N1Cc2cc3c(cc2C[C@H]1C(=O)N[C@@H](Cc1ccc(-c2ccc(C#N)cc2)cc1)C(=O)O)OC[C@H](c1ccc(OCc2ccc(Cl)c(Cl)c2)cc1)O3 [Example 142, (S)-3-(4′-Cyano-biphenyl-4-yl)-2-{[(3S,8S)-3-[4-(3,4-dichloro-benzyloxy)-phenyl]-7-(6-isopropylamino-2-methyl-pyridine-3-sulfonyl)-2,3,6,7,8,9-hexahydro-[1,4]dioxino[2,3-g]isoquinoline-8-carbonyl]-amino}-propionic acid] | 263
7 | Cc1nc(NCC2CC2)ccc1S(=O)(=O)N1Cc2cc3c(cc2C[C@H]1C(=O)N[C@@H](Cc1ccc(-c2ccc(C#N)cc2)cc1)C(=O)O)OC[C@H](c1ccc(OCc2ccc(Cl)c(Cl)c2)cc1)O3 [Example 144, (S)-3-(4′-Cyano-biphenyl-4-yl)-2-({(3S,8S)-7-[6-(cyclopropylmethyl-amino)-2-methyl-pyridine-3-sulfonyl]-3-[4-(3,4-dichloro-benzyloxy)-phenyl]-2,3,6,7,8,9-hexahydro-[1,4]dioxino[2,3-g]isoquinoline-8-carbonyl}-amino)-propionic acid] | 245
8 | CC[C@@H](c1ccccc1)N1Cc2cc3c(cc2C[C@H]1C(=O)N[C@@H](Cc1ccc(-c2ccnc(C)c2C)cc1)C(=O)O)OC[C@H](c1ccc(OCc2cccc(Cl)c2)cc1)O3 [Example 147, (S)-2-{[(3S,8S)-3-[4-(3-Chloro-benzyloxy)-phenyl]-7-((S)-1-phenyl-propyl)-2,3,6,7,8,9-hexahydro-[1,4]dioxino[2,3-g]isoquinoline-8-carbonyl]-amino}-3-[4-(2,3-dimethyl-pyridin-4-yl)-phenyl]-propionic acid] | 5
9 | CC[C@@H](c1ccccc1)N1Cc2cc3c(cc2C[C@H]1C(=O)N[C@@H](Cc1ccc(-c2ccnc(C)c2C)cc1)C(=O)O)OC[C@H](c1ccc(OCc2ccc(Cl)cc2)cc1)O3 [Example 148, (S)-2-{[(3S,8S)-3-[4-(4-Chloro-benzyloxy)-phenyl]-7-((S)-1-phenyl-propyl)-2,3,6,7,8,9-hexahydro-[1,4]dioxino[2,3-g]isoquinoline-8-carbonyl]-amino}-3-[4-(2,3-dimethyl-pyridin-4-yl)-phenyl]-propionic acid] | 13
10 | CC[C@@H](c1ccccc1)N1Cc2cc3c(cc2C[C@H]1C(=O)N[C@@H](Cc1ccc(-c2ccnc(C)c2C)cc1)C(=O)O)OC[C@H](c1ccc(OCc2ccccc2)cc1)O3 [Example 149, (S)-2-{[(3S,8S)-3-(4-Benzyloxy-phenyl)-7-((S)-1-phenyl-propyl)-2,3,6,7,8,9-hexahydro-[1,4]dioxino[2,3-g]isoquinoline-8-carbonyl]-amino}-3-[4-(2,3-dimethyl-pyridin-4-yl)-phenyl]-propionic acid] | 26
11 | CC(=O)N1Cc2cc3c(cc2C[C@H]1C(=O)N[C@@H](Cc1ccc(-c2ccnc(C)c2C)cc1)C(=O)O)OC[C@H](c1ccc(OCc2ccc(Cl)c(Cl)c2)cc1)O3 [Example 150, (S)-2-({(3S,8S)-7-Acetyl-3-[4-(3,4-dichloro-benzyloxy)-phenyl]-2,3,6,7,8,9-hexahydro-[1,4]dioxino[2,3-g]isoquinoline-8-carbonyl}-amino)-3-[4-(2,3-dimethyl-pyridin-4-yl)-phenyl]-propionic acid] | 372
12 | Cc1ccccc1C(=O)N1Cc2cc3c(cc2C[C@H]1C(=O)N[C@@H](Cc1ccc(-c2ccnc(C)c2C)cc1)C(=O)O)OC[C@H](c1ccc(OCc2ccc(Cl)c(Cl)c2)cc1)O3 [Example 151, (S)-2-{[(3S,8S)-3-[4-(3,4-Dichloro-benzyloxy)-phenyl]-7-(2-methyl-benzoyl)-2,3,6,7,8,9-hexahydro-[1,4]dioxino[2,3-g]isoquinoline-8-carbonyl]-amino}-3-[4-(2,3-dimethyl-pyridin-4-yl)-phenyl]-propionic acid] | 18
13 | Cc1nccc(-c2ccc(C[C@H](NC(=O)[C@@H]3Cc4cc5c(cc4CN3C(=O)C(C)(C)C)O[C@@H](c3ccc(OCc4ccc(Cl)c(Cl)c4)cc3)CO5)C(=O)O)cc2)c1C [Example 152, (S)-2-{[(3S,8S)-3-[4-(3,4-Dichloro-benzyloxy)-phenyl]-7-(2,2-dimethyl-propionyl)-2,3,6,7,8,9-hexahydro-[1,4]dioxino[2,3-g]isoquinoline-8-carbonyl]-amino}-3-[4-(2,3-dimethyl-pyridin-4-yl)-phenyl]-propionic acid] | 80
